Where a name gives a salt, the structure may show the parent alone.
Assays:
[1] = molecular target: Full-length PRMT5 enzyme co-expressed with His6-MEP50 (Homo sapiens (Human), UniProt O14744); experiment: PRMT5 Biochemical Assay; conditions: Transcreener EPIGEN methyltransferase assay, histone H4 derived peptide substrate, 4 hours at 37 degree Celsius
Description: Compounds of the invention may be tested for in vitro activity in the following assay:
A histone H4 derived peptide is used as substrate (amino acid sequence: […]NH2). Full-length PRMT5 enzyme (NCBI Reference sequence NP_006100.2) was co-expressed with His6-MEP50 in insect cells and purified via Nickel immobilized metal affinity and gel filtration chromatography (“the enzyme”).
The 6 μL reactions are run in Greiner brand black 384-well low volume assay plates. All reactions contained assay buffer (phosphate buffered saline, 0.01% (v/v) Tween-20, 0.01% (w/v) albumin from chicken egg white, 1 mM Dithiothreitol, 1 μM peptide substrate, 1 μM S-Adenosyl methionine, and 15 ng/reaction enzyme, with the enzyme being omitted from negative control reactions. Compounds were added in a volume of 100 nL from dilution series prepared in DMSO, positive and negative control reactions receiving the same volume DMSO without compound. The plates were sealed with adhesive seals and incubated for 4 hours at 37 degree Celsius. Reaction progress was measured using the Transcreener™ EPIGEN methyltransferase assay (BellBrook Labs, Madison, Wis.) as recommended by the manufacturer. To each reaction 2 μL detection mix were added, containing coupling enzymes, fluorescence polarisation tracer, and AMP antibody. Plates were incubated for 90 minutes before being read on a PerkinElmer EnVision™ plate reader in fluorescence polarisation mode. IC50 values were obtained from the raw readings by calculating percent inhibition (% I) for each reaction relative to controls on the same plate (% I=(I−CN)/(CP−CN) where CN/CP are the averages of the negative/positive reactions, respectively), then fitting the % I data vs. compound concentration [I] to % I=(A+((B−A)/(1+((C/[I]^D)))) where A is the lower asymptote, B is the upper asymptote, C is the IC50 value, and D is the slope.

TE11 cell line = experiment: PRMT5 Biomarker Assay (symmetrical dimethylation of arginine, Histone H4 Arginine 3); format: cell-based; conditions: Homo sapiens, TE-11; TE11 cells, 72 hours incubation, Di-Methyl Histone H4 Arginine 3 level
Description: Compounds of the invention may be tested for potency to inhibit symmetrical dimethylation of arginine in the following assay:
The cell line TE11 was seeded at a density of 6,000 cells per well in 96 well optical quality tissue culture plates in DME medium and 10% foetal bovine serum, and allowed to adhere for 5 hours under standard culture conditions (37 degree Celsius, 5% CO2). Compound dilutions prepared in DMSO were added to the medium, with negative control wells reserved for treatment with DMSO only and maximum inhibition controls receiving a potent PRMT5 inhibitor compound at 1 μM concentration. After incubation for 72 hours, the cells were fixed with 3.7% formaldehyde in PBS for 30 minutes at room temperature, washed with phosphate buffer saline and blocked with Odyssey blocking buffer (LI-COR, Lincoln, Nebr.). Rabbit anti-Di-Methyl Histone H4 Arginine 3 specific antibody (Epigentek) in Odyssey blocking buffer was added and incubated for 14 hours at 4 degree Celsius. After washing, anti-rabbit secondary antibody labelled with Alexa647 dye (LifeTechnologies) and Hoechst 33342 (1 μg/mL, SigmaAldrich) were added for 1 hour incubation. Plates were washed and read on a PerkinElmer Envision 2103 in fluorescence intensity scanning mode (24 scans across the well area). The plates were imaged on a PerkinElmer Phenix high content imaging platform. Using a Columbus image analysis pipeline, individual nuclei were located by Hoechst 33342 stain and the methylation level was calculated from the Alexa647-related intensity in the same area. IC50 values were obtained from the mean Alexa647-related intensity per cell by calculating percent inhibition (% I) for each well relative to controls on the same plate (% I=(I−CN)/(CP−CN) where CN/CP are the averages of the negative/maximum inhibition controls, respectively), then fitting the % I data vs. compound concentration [I] to % I=(A+((B−A)/(1+((C/[I])^D)))) where A is the lower asymptote, B is the upper asymptote, C is the IC50 value, and D is the slope.

Chain of Full-length PRMT5 enzyme co-expressed with His6-MEP50 (O14744 whole entry): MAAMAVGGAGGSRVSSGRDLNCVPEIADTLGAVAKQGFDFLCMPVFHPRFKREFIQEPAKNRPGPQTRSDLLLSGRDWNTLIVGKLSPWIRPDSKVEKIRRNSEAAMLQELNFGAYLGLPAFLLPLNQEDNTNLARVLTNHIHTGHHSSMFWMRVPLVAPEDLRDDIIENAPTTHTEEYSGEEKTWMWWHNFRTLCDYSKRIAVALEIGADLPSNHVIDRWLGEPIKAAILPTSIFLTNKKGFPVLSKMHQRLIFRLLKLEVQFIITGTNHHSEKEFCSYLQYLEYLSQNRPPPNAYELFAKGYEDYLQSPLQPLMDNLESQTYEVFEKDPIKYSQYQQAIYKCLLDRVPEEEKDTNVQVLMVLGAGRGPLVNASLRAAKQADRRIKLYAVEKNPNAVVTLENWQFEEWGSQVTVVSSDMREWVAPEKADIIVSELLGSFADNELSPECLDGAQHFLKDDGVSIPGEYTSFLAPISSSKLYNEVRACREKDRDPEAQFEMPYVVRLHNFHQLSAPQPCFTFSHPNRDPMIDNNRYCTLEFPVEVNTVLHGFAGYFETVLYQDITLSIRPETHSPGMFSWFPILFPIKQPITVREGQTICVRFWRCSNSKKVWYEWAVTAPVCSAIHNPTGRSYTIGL
Chain of Full-length PRMT5 enzyme co-expressed with His6-MEP50 (Q9BQA1 whole entry partner): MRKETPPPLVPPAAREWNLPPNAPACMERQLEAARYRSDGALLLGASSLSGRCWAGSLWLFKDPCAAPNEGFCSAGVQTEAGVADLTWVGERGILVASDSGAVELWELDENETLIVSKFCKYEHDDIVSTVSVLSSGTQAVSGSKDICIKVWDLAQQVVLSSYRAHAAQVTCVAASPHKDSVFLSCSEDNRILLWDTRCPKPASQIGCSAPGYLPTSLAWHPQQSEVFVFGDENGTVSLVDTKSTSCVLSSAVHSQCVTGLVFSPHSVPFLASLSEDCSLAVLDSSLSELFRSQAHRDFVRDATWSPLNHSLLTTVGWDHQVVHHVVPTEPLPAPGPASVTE

SMILES | IC50 [1] [nM] | IC50 (TE11 cell line) [nM]
CCOc1cc(C(=O)N2C3COCC2CC(O)C3)ccc1C(=O)NC[C@@H](O)CNC1Cc2ccccc2C1 (stereo partly drawn) [Compound 2, N—((S)-3-((2,3-Dihydro-1H-inden-2-yl)amino)-2-hydroxypropyl)-2-ethoxy-4-(7-hydroxy-3-oxa-9-azabicyclo[3.3.1]nonane-9-carbonyl)benzamide] | 19 | 0.6
CCOc1cc(C(=O)N2C3CCC2COC3)ccc1C(=O)N(C)C[C@@H](O)[C@@H]1Cc2ccccc2CN1 [Compound 3, 4-(3-Oxa-8-azabicyclo[3.2.1]octane-8-carbonyl)-2-ethoxy-N—((R)-2-hydroxy-2-((S)-1,2,3,4-tetrahydroisoquinolin-3-yl)ethyl)-N-methylbenzamide Hydrochloride] | 36 | 11.7
CCOc1cc(C(=O)N2C3COCC2CC(O)C3)ccc1C(=O)NC[C@@H](O)[C@@H]1Cc2ccccc2CN1 (stereo partly drawn) [Compound 1, 2-Ethoxy-N—((R)-2-hydroxy-2-((S)-1,2,3,4-tetrahydroisoquinolin-3-yl)ethyl)-4-(7-hydroxy-3-oxa-9-azabicyclo[3.3.1]nonane-9-carbonyl)benzamide Hydrochloride] | 19 | 3.9
